In patent US11827628B2, “Compositions and methods for inhibition of the JAK pathway” (Rigel Pharmaceuticals, Inc., priority 2005, dated 2023):
Like-named read-outs stand apart in the source and are kept apart here.

Tested on: up-regulation of ICAM-1 (CD54) by IFNγ in U937 human monocytic cells
Test: U937 IFNγ ICAM1 FACS Assay
Type: cell-based
Details: ICAM-1 expression by FACS, read-out: IC50, Example 44
Outline: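 Readout was the geometric-mean APC anti-ICAM-1 signal by FACS on live U937 monocytic cells, with % live cells also recorded. Cells were exposed to compounds (8 points, 3-fold dilutions, duplicates) for 30 min at 37 °C before 18–24 h of IFNγ stimulation. EC50 values were computed from the dose curve.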

[1] = U937 cells stimulated with IFNγ

Row | IC50 [1] | IC50 (Homo sapiens, U-937, U937 cells stimulated with IFNγ) | Compound
1 | 1120 nM |  | CNS(=O)(=O)c1cc(Nc2ncc(F)c(Nc3ccc(CC#N)cc3)n2)ccc1C [III-1, 5-Fluoro-N2-[3-(N-methylaminosulfony)-4-methylphenyl]-5-fluoro-N4-(4-cyanomethylphenyl)-2,4-pyrimidinediamine]
2 | 534 nM |  | Cc1ccc(Nc2ncc(F)c(Nc3cc(C)c(OCC#N)c(C)c3)n2)cc1S(N)(=O)=O [Compound I-27, N2-(3-Aminosulfonyl-4-methyl)phenyl-N4-(4-cyanomethoxy-3,5-dimethyl)phenyl-5-fluoro-2,4-pyrimidinediamine]
3 | 315 nM |  | Cc1noc(COc2ccc(Nc3nc(Nc4ccc(C)c(S(N)(=O)=O)c4)ncc3F)cc2)n1 [Compound I-259, N2-(3-Aminosulfonyl-4-methylphenyl)-5-fluoro-N4-[4-(3-methyl-1,2,4-oxadiazol-5-yl)methyleneoxyphenyl]-2,4-pyrimidinediamine]
4 | 1120 nM |  | Cc1ccc(Nc2ncc(F)c(Nc3cccc(CNC(=O)C4CC4)c3)n2)cc1S(N)(=O)=O [III-40, N2-(3-aminosulfonyl-4-methyl)phenyl-N4-(3-cyclopropylcarbonylaminomethyl)phenyl-5-fluoro-2,4-pyrimidinediamine]
5 | 168 nM |  | Cc1ccc(Nc2ncc(C)c(Nc3ccc(CCC#N)cc3)n2)cc1S(N)(=O)=O [III-11]
6 | 975 nM |  | Cc1nc(COc2ccc(Nc3nc(Nc4cccc(S(N)(=O)=O)c4)ncc3F)cc2)cs1 [Compound I-281, N2-(3-Aminosulfonylphenyl)-5-fluoro-N4-[4-(2-methylthiazol-4-yl)methyleneoxyphenyl]-2,4-pyrimidinediamine]
7 | 2720 nM |  | CN1CCC(Oc2ccc(Nc3nc(Nc4cccc(S(N)(=O)=O)c4)ncc3F)cc2)C1 (centres unmarked) [II-9, N2-(3-Aminosulfonylphenyl)-5-fluoro-N4-(N-methylpyrrolidin-3-yloxyphenyl)-2,4-pyrimidinediamine]
8 | 434 nM |  | Cc1cc(COc2ccc(Nc3nc(Nc4cc(C)c(Cl)c(S(N)(=O)=O)c4)ncc3F)cc2)no1 [Compound I-218, N2-(3-Aminosulfonyl-4-chloro-5-methylphenyl)-5-fluoro-N4-[4-(5-methylisoxazol-3-yl)methyleneoxyphenyl]-2,4-pyrimidinediamine]
9 | 10100 nM |  | CN1CCN(S(=O)(=O)c2cccc(Nc3ncc(F)c(Nc4ccc(OCC#N)cc4)n3)c2)CC1 [Compound I-19, N4-(4-Cyanomethoxy)phenyl-5-fluoro-N2-[3-(4-methylpiperazin-1-yl)sulfonyl]phenyl-2,4-pyrimidinediamine]
10 | 415 nM |  | Cc1noc(COc2ccc(Nc3nc(Nc4cc(C)c(Cl)c(S(N)(=O)=O)c4)ncc3F)cc2)n1 [Compound I-265, N2-(3-Aminosulfonyl-4-chloro-5-methylphenyl)-5-fluoro-N4-[4-(3-methyl-1,2,4-oxadiazol-5-yl)methyleneoxyphenyl]-2,4-pyrimidinediamine]
11 | 324 nM |  | Cc1noc(COc2ccc(Nc3nc(Nc4cccc(S(N)(=O)=O)c4)ncc3F)cc2)n1 [Compound I-258, N2-(3-Aminosulfonylphenyl)-5-fluoro-N4-[4-(3-methyl-1,2,4-oxadiazol-5-yl)methyleneoxyphenyl]-2,4-pyrimidinediamine]
12 | 588 nM |  | Cc1cc(COc2ccc(Nc3nc(Nc4ccc(C)c(S(N)(=O)=O)c4)ncc3F)cc2)no1 [Compound I-219, N2-(3-Aminosulfonyl-4-methylphenyl)-5-fluoro-N4-[4-(5-methylisoxazol-3-yl)methyleneoxyphenyl]-2,4-pyrimidinediamine]
13 |  | 1650 nM | NS(=O)(=O)c1cccc(Nc2ncc(F)c(Nc3ccc(Cc4ccncc4)cc3)n2)c1 [III-70, N2-(3-Aminosulfonylphenyl)-5-fluoro-N4-[4-(4-pyridinylmethyl)phenyl]-2,4-pyrimidinediamine]
14 | 8330 nM |  | Cc1ccc(Nc2ncc(F)c(Nc3cccc(OC4CCCN(C)C4)c3)n2)cc1S(N)(=O)=O (racemic) [II-1, Racemic N2-(3-aminosulfonyl-4-methylphenyl)-5-fluoro-N4-{3-[(1-methylpiperidin-3-yl)oxy]phenyl}-2,4-pyrimidinediamine]
